Assays:
[1] = Solubility and loading of PTX; format: physicochemical
Procedure: The PEG-HCCs were purified by sequential dialysis in DMF and water. This was followed by passage through a PD-10 desalting column to remove any coordinated metals or unbound PEG. […] The particles were water soluble. See Berlin et al. for AFM data.
PEG-HCCs were loaded with PTX by dropwise addition of PTX in methanol (5 mg in 1 mL) to a rapidly stirring solution of PEG-HCCs in water (100 mg/L concentration of core HCCs, 5 mL). Next, the solution was bath-sonicated, concentrated to 3 mL by rotary evaporation (to remove the methanol), and then diluted back to the original volume (5 mL) with water. This provided a translucent solution of PTX non-covalently associated with PEG-HCCs (PTX/PEG-HCCs). […] In other words, it is visually apparent if PTX is precipitating because the solution becomes a milky white color when the PTX is overloaded. Applicants have observed that the maximum loading concentration of PTX in the PEG-HCCs in the experiments performed to date is about 12 mg/mL.

bEnd.3 cells = assay: Antimycin A induced oxidative stress in bEnd.3 cells, DHE flow cytometry (Example 13.1); format: cell-based; conditions: treatment after Antimycin A
Procedure: Mean fluorescence intensity (indicative of oxidative stress) was measured using as control viable cells of 4 separated experiments treated with Antimycin A (AntA) and stained with dihydroethidine (DHE) (“AntA+DHE”). Results are given as % control (unstained cells) to account for minor differences in DHE concentrations and laser fluctuations.
Accordingly, the next series of experiments employed flow cytometry to assess antioxidant effectiveness of PEG-HCCs and targeted PEG-HCCs in cultured brain endothelial cells (b.End3 cells). For these experiments, bEnd.3 cells were cultured to 50-80% confluence in 6 well plates in 2 mL of culture media. The cells were treated with 10 μL of 2 mM Antimycin A (AntA, shown to induce intracellular superoxide radical production). Five minutes later, 1×PBS, PEG-HCC, psPEG-HCC or super oxide dismutase (SOD) was added. The cells were then incubated at 37° C. for 5 minutes. At that time, either 2 μL of 10 mM DHE or a 50% DMSO solution in 1×PBS (control) was added to the wells. The cells were then incubated for another 30 minutes. Next, the cells were placed on ice, trypsinized, and washed twice. The cells were then, counted and stained with SytoxRed (viability stain). 10,000 cells were analyzed per treatment group using the TXRED channel (DHE) and SytoxRed to assess cell viability.

solubility in water [1] | Compound | level of oxidative stress (DHE mean fluorescence intensity) (bEnd.3 cells)
insoluble in water | CC(=O)O[C@H]1C(=O)[C@@]2(C)[C@H]([C@H](OC(=O)c3ccccc3)[C@]3(O)C[C@H](OC(=O)[C@H](O)[C@@H](NC(=O)c4ccccc4)c4ccccc4)C(C)=C1C3(C)C)[C@]1(OC(C)=O)CO[C@@H]1C[C@@H]2O [PTX, Paclitaxel] | –
– | Cc1c(C)c2c(c(C)c1O)CCC(C)(C(=O)O)O2 (centres unmarked) [Trolox] | not effective

From patent publication US8916606B2, “Therapeutic compositions and methods for targeted delivery of active agents” (William Marsh Rice University, priority 2009, dated 2014)
